Assay results as given in PubChem BioAssay (NCI).
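Protocol summary: plate cells (96-well), add compound at 5 concentrations, incubate 48 h, interpolate endpoints linearly. At the TGI there is no net growth.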

Assays:
Experiment in all cases: NCI tumour cell line growth inhibition, 48 h
UACC-257 melanoma = tested on: UACC-257 melanoma
U251 CNS = tested on: U251 CNS
RXF 393 renal = tested on: RXF 393 renal
MALME-3M melanoma = tested on: MALME-3M melanoma
SW-620 colon = tested on: SW-620 colon
COLO 205 colon = tested on: COLO 205 colon
SK-MEL-28 melanoma = tested on: SK-MEL-28 melanoma
DLD-1 colon = tested on: DLD-1 colon
OVCAR-5 ovarian = tested on: OVCAR-5 ovarian
K-562 leukemia = tested on: K-562 leukemia
NCI-H460 lung = tested on: NCI-H460 lung
OVCAR-3 ovarian = tested on: OVCAR-3 ovarian
A498 renal = tested on: A498 renal
SNB-78 CNS = tested on: SNB-78 CNS
UACC-62 melanoma = tested on: UACC-62 melanoma
KM12 colon = tested on: KM12 colon
SN12C renal = tested on: SN12C renal
EKVX NSCLC = tested on: EKVX NSCLC
MOLT-4 leukemia = tested on: MOLT-4 leukemia
HCC-2998 colon = tested on: HCC-2998 colon
OVCAR-8 ovarian = tested on: OVCAR-8 ovarian
SK-MEL-2 melanoma = tested on: SK-MEL-2 melanoma
HCT-15 colon = tested on: HCT-15 colon
NCI-H23 lung = tested on: NCI-H23 lung
KM20L2 colon = tested on: KM20L2 colon
CAKI-1 renal = tested on: CAKI-1 renal
HT29 colon = tested on: HT29 colon
786-0 renal = tested on: 786-0 renal
TK-10 renal = tested on: TK-10 renal
CCRF-CEM leukemia = tested on: CCRF-CEM leukemia
IGROV1 ovarian = tested on: IGROV1 ovarian
HCT-116 colon = tested on: HCT-116 colon
LXFL 529 NSCLC = tested on: LXFL 529 NSCLC
HOP-92 NSCLC = tested on: HOP-92 NSCLC
DMS 273 small cell lung = tested on: DMS 273 small cell lung
ACHN renal = tested on: ACHN renal
OVCAR-4 ovarian = tested on: OVCAR-4 ovarian
HOP-62 NSCLC = tested on: HOP-62 NSCLC
SK-MEL-5 melanoma = tested on: SK-MEL-5 melanoma
A549 NSCLC = tested on: A549 NSCLC
SF-268 CNS = tested on: SF-268 CNS
HOP-18 NSCLC = tested on: HOP-18 NSCLC
SNB-75 CNS = tested on: SNB-75 CNS
M14 melanoma = tested on: M14 melanoma
M19-MEL melanoma = tested on: M19-MEL melanoma
XF 498 CNS = tested on: XF 498 CNS
SF-295 CNS = tested on: SF-295 CNS
HL-60(TB) leukemia = tested on: HL-60(TB) leukemia
DMS 114 small cell lung = tested on: DMS 114 small cell lung
RPMI-8226 leukemia = tested on: RPMI-8226 leukemia
SK-OV-3 ovarian = tested on: SK-OV-3 ovarian
RXF-631 renal = tested on: RXF-631 renal
SNB-19 CNS = tested on: SNB-19 CNS
SF-539 CNS = tested on: SF-539 CNS
NCI-H226 lung = tested on: NCI-H226 lung
LOX IMVI melanoma = tested on: LOX IMVI melanoma
NCI-H522 lung = tested on: NCI-H522 lung
UO-31 renal = tested on: UO-31 renal
SR leukemia = tested on: SR leukemia

COC(=O)[C@@]12CC(C(C)C)[C@H]3CC(C(=O)C=C1OC)[C@H]32 (some centres not stated)
TGI (UACC-257 melanoma): > 100 µM
TGI (U251 CNS): > 100 µM
TGI (RXF 393 renal): > 100 µM
TGI (MALME-3M melanoma): > 100 µM
TGI (SW-620 colon): > 100 µM
TGI (COLO 205 colon): > 100 µM
TGI (SK-MEL-28 melanoma): > 100 µM
TGI (DLD-1 colon): > 100 µM
TGI (OVCAR-5 ovarian): > 100 µM
TGI (K-562 leukemia): > 100 µM
TGI (NCI-H460 lung): > 100 µM
TGI (OVCAR-3 ovarian): > 100 µM
TGI (A498 renal): > 100 µM
TGI (SNB-78 CNS): > 100 µM
TGI (UACC-62 melanoma): > 100 µM
TGI (KM12 colon): > 100 µM
TGI (SN12C renal): > 100 µM
TGI (EKVX NSCLC): > 100 µM
TGI (MOLT-4 leukemia): > 100 µM
TGI (HCC-2998 colon): > 100 µM
TGI (OVCAR-8 ovarian): > 100 µM
TGI (SK-MEL-2 melanoma): > 100 µM
TGI (HCT-15 colon): > 100 µM
TGI (NCI-H23 lung): > 100 µM
TGI (KM20L2 colon): > 100 µM
TGI (CAKI-1 renal): > 100 µM
TGI (HT29 colon): > 100 µM
TGI (786-0 renal): > 100 µM
TGI (TK-10 renal): > 100 µM
TGI (CCRF-CEM leukemia): > 100 µM
TGI (IGROV1 ovarian): > 100 µM
TGI (HCT-116 colon): > 100 µM
TGI (LXFL 529 NSCLC): > 100 µM
TGI (HOP-92 NSCLC): > 100 µM
TGI (DMS 273 small cell lung): > 100 µM
TGI (ACHN renal): > 100 µM
TGI (OVCAR-4 ovarian): > 100 µM
TGI (HOP-62 NSCLC): > 100 µM
TGI (SK-MEL-5 melanoma): > 100 µM
TGI (A549 NSCLC): > 100 µM
TGI (SF-268 CNS): > 100 µM
TGI (HOP-18 NSCLC): > 100 µM
TGI (SNB-75 CNS): > 100 µM
TGI (M14 melanoma): > 100 µM
TGI (M19-MEL melanoma): > 100 µM
TGI (XF 498 CNS): > 100 µM
TGI (SF-295 CNS): > 100 µM
TGI (HL-60(TB) leukemia): > 100 µM
TGI (DMS 114 small cell lung): > 100 µM
TGI (RPMI-8226 leukemia): > 100 µM
TGI (SK-OV-3 ovarian): > 100 µM
TGI (RXF-631 renal): > 100 µM
TGI (SNB-19 CNS): > 100 µM
TGI (SF-539 CNS): > 100 µM

Cc1cc(C)c(-c2noc(-c3ccc(Cl)cc3)c2C2=NCCCN2)c(C)c1
TGI (UACC-257 melanoma): 40.6 µM
TGI (U251 CNS): 25.8 µM
TGI (RXF 393 renal): 48.5 µM
TGI (MALME-3M melanoma): 36.8 µM
TGI (SW-620 colon): > 100 µM
TGI (COLO 205 colon): 35.1 µM
TGI (SK-MEL-28 melanoma): 29.9 µM
TGI (DLD-1 colon): > 100 µM
TGI (OVCAR-5 ovarian): 86 µM
TGI (K-562 leukemia): 37.7 µM
TGI (NCI-H460 lung): 28.8 µM
TGI (OVCAR-3 ovarian): > 100 µM
TGI (SNB-78 CNS): > 100 µM
TGI (UACC-62 melanoma): 40.7 µM
TGI (KM12 colon): > 100 µM
TGI (SN12C renal): 82.6 µM
TGI (EKVX NSCLC): > 100 µM
TGI (MOLT-4 leukemia): 41.7 µM
TGI (HCC-2998 colon): 43.6 µM
TGI (OVCAR-8 ovarian): > 100 µM
TGI (SK-MEL-2 melanoma): 49.9 µM
TGI (HCT-15 colon): > 100 µM
TGI (NCI-H23 lung): 40.1 µM
TGI (NCI-H226 lung): 95.3 µM
TGI (KM20L2 colon): 70.6 µM
TGI (CAKI-1 renal): > 100 µM
TGI (HT29 colon): 32.5 µM
TGI (LOX IMVI melanoma): 37.1 µM
TGI (786-0 renal): 26.5 µM
TGI (CCRF-CEM leukemia): 73.9 µM
TGI (IGROV1 ovarian): > 100 µM
TGI (HCT-116 colon): > 100 µM
TGI (LXFL 529 NSCLC): > 100 µM
TGI (ACHN renal): > 100 µM
TGI (OVCAR-4 ovarian): > 100 µM
TGI (HOP-62 NSCLC): 85.8 µM
TGI (SK-MEL-5 melanoma): 24.2 µM
TGI (NCI-H522 lung): 71.3 µM
TGI (A549 NSCLC): > 100 µM
TGI (SF-268 CNS): 49.6 µM
TGI (HOP-18 NSCLC): > 100 µM
TGI (UO-31 renal): > 100 µM
TGI (SR leukemia): > 100 µM
TGI (M14 melanoma): 6.11 µM
TGI (M19-MEL melanoma): > 100 µM
TGI (XF 498 CNS): 54.8 µM
TGI (SF-295 CNS): 25.4 µM
TGI (HL-60(TB) leukemia): 48.7 µM
TGI (RPMI-8226 leukemia): 45.3 µM
TGI (SK-OV-3 ovarian): > 100 µM
TGI (RXF-631 renal): > 100 µM
TGI (SNB-19 CNS): > 100 µM
TGI (SF-539 CNS): 30.5 µM
